Here are results for seven compounds from patent US20250276952A1, “4-AMINOPHENYL-THIAZOLE DERIVATIVES AND METHODS OF USE THEREOF” (CYTEIR THERAPEUTICS, INC., priority 2022, published 2025).

One experiment has as its target T1, human MCT1 (Homo sapiens, UniProt P53985).
T1 construct: expressed in transfected cells; host or cells: MDCK-II cells, transiently co-transfected for 48 h
T1 sequence (P53985 1-500): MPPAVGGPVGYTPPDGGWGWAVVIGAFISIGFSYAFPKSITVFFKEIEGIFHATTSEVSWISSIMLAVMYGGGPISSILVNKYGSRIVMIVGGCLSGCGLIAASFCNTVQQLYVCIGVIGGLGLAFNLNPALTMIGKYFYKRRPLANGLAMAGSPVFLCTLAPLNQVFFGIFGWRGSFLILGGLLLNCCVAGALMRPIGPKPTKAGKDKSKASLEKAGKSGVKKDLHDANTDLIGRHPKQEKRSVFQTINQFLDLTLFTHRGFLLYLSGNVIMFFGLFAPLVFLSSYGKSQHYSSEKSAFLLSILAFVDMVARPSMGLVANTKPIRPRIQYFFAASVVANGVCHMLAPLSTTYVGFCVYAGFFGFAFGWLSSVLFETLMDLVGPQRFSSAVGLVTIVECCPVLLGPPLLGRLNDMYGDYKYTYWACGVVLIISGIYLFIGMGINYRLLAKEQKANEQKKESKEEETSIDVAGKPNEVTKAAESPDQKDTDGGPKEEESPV
T1 sequence (P35613 140-385 partner limits assumed): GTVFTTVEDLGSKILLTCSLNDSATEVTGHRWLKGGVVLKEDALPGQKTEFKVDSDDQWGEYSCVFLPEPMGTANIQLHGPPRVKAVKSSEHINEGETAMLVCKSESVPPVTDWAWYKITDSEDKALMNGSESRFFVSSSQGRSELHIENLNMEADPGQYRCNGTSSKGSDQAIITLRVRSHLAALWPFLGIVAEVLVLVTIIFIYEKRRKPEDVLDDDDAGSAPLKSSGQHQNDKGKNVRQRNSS
As to the kind of experiment: MCT1 transport inhibition assay (TPGA uptake, LC-MS/MS). Type of experiment: cell-based. Conditions: MDCK-II cells overexpressing human MCT1, TPGA transport, read-out: BioIVT MCT1 Transporter IC50. As for the experimental part:
Inhibition of MCT1 transport after treatment with compounds of the present invention was measured in MDCK-II cells that overexpress human MCT1 by quantifying the transport of 2-Thiophene-glycoxylic acid (TPGA) into cells using LC-MS/MS.
MDCK-II cells are seeded at 60,000 cells per well in growth medium (low-glucose DMEM+10% FBS) in 96-well trans-well membrane plates, and incubated overnight (37° C., 5% CO2). Cells were co-transfected with mammalian expression constructs coding for MCT1 and CD147 at a 2:1 ratio or an empty vector control (GFP) and then incubated for 48 h (37° C., 5% CO2). Cells were washed 3 times with HBSS and cells were preincubated with inhibitors or vehicle control at room temperature in HBSS for 30 min with orbital shaking (60 rpm). HBSS was aspirated from the wells and replaced with HBSS with 25 mM Bis-Tris pH5.5+inhibitor or vehicle control+500 μM TPGA and incubated for 1 min at room temperature with orbital shaking (60 rpm). Both the apical and basolateral side of the trans-well insert were washed 4 times with ice-cold PBS. Cells were lysed with 60 μL of cell extraction solution, and the amount of TPGA in each well was quantified in triplicate by LC-MS/MS. The MCT1-mediated uptake rate was calculated using the following equation: […]
Percent inhibition for each concentration of inhibitor tested was calculated using the following equation: […]
Curves were fit to the calculated percent inhibition for each inhibitor, and the IC50 representing the concentration of inhibitor at which MCT1 is inhibited by 50% was calculated from this curve.

The test system of experiment [1] is Daudi (Burkitt Lymphoma) cells. As to the kind of experiment: Intracellular lactate accumulation assay (Lactate-Glo, 2 h treatment). Conditions: Homo sapiens, read-out: LactateGlo EC50. Type of experiment: cell-based. The protocol:
Intracellular lactate accumulation after a 2 h treatment with compounds of the present invention was measured in Daudi (Burkitt Lymphoma) cells using the Lactate-Glo Assay (Promega).
Daudi cells were seeded at 7,500 cells per well in 150 μL of growth medium (RPMI-1640 with 2 mM GlutaMAX+10% FBS) in clear, 96-well, flat-bottom microplates, and incubated overnight (37° C., 5% CO2). Compounds of the present invention were added using an INTEGRA VIAFLO 96 (8 point, 3-fold serial dilution, top concentration 1, 10, or 20 μM, 0.4% final DMSO concentration). After a 2 h incubation (37° C., 5% CO2) microplates containing cells were washed twice with 150 μL ice-cold PBS, resuspended in 25 μL ice-cold PBS containing 12.5 μL 0.6N HCl, and placed on a microplate shaker for 5 min to lyse the cells. Following lysis, 12.5 μL 1M Trizma base was added to neutralize the suspension, and microplates were returned to the microplate shaker for 1 min. Plates were sealed and stored at −20° C. until further processing. On the day of the assay, microplates were thawed for 45 min at room temperate and […] Lactate Detection Reagent (prepared as specified by manufacturer) was added to each well. Microplates were placed on a plate shaker for 1 min and incubated at room temperature for 1 h. Luminescence was measured using a BioTek Cytation 5 Multi-Mode Reader. Curve fitting and calculation of EC50 was performed using GraphPad Prism.

The structures appear in SMILES notation. Read-outs that look alike come from different tables or passages of the source.

By IC50 is commonly meant the midpoint of a concentration-inhibition curve. One may read the EC50 as the midpoint of the concentration-response curve.

In the case of `Cc1[nH]nc(C(F)(F)F)c1Cc1sc2c(c1C(=O)N1C[C@](C)(O)CO1)c(=O)n(C)c(=O)n2C(C)C` [AZD3965], the IC50 at human MCT1 (numeric values) turned out to be 190 nM.
`COc1cc(NC(=O)OC(C)C)ccc1-c1cnc([C@H]2CC[C@H](NC(=O)OC(C)C)CC2)s1` [Example 14, isopropyl ((trans)-4-(5-(4-((isopropoxycarbonyl)amino)-2-methoxyphenyl)thiazol-2-yl)cyclohexyl)carbamate]: the EC50 in experiment [1] lay in the range of 150 to 1000 nM.
On to `CC(C)OC(=O)N[C@H]1CC[C@H](c2ncc(-c3ccc(NC(=O)NCc4ccccc4)cc3N)s2)CC1` [Example 19, isopropyl ((trans)-4-(5-(2-amino-4-(3-benzylureido)phenyl)thiazol-2-yl)cyclohexyl)carbamate], for which the EC50 in experiment [1] is under 50 nM.
Turning to `CC(C)OC(=O)N[C@H]1CC[C@H](c2ncc(-c3ccc(NC(=O)NCc4ccccc4)cc3O)s2)CC1` [Example 20, isopropyl ((trans)-4-(5-(4-(3-benzylureido)-2-hydroxyphenyl)thiazol-2-yl)cyclohexyl)carbamate], the EC50 in experiment [1] was under 50 nM.
In the case of `CC(C)OC(=O)Nc1ccc(-c2cnc([C@H]3CC[C@H](NC(=O)OC(C)C)CC3)s2)c(F)c1` [Example 23, isopropyl ((trans)-4-(5-(2-fluoro-4-((isopropoxycarbonyl)amino)phenyl)thiazol-2-yl)cyclohexyl)carbamate], in experiment [1], the concentration giving a half-maximal response (EC50) is over 5000 nM.
With `O=C(Nc1ccccc1C(=O)O)c1cc(S(=O)(=O)c2ccccc2)ccc1Cl` [BAY8002], on human MCT1 (numeric values), the IC50 stood at 73 nM.
Take `COCCn1c(-c2ccc(NC(=O)OC(C)C)cc2F)cnc1[C@H]1CC[C@H](NC(=O)OC(C)C)CC1` [Example 32, isopropyl ((trans)-4-(5-(2-fluoro-4-((isopropoxycarbonyl)amino)phenyl)-1-(2-methoxyethyl)-1H-imidazol-2-yl)cyclohexyl)carbamate]: on human MCT1 (class symbols), the IC50 is over 5000 nM.
